From patent publication US9637451B2, “Indole compound” (ASTELLAS PHARMA INC., priority 2014, dated 2017) come the findings set out here.

Data set [1] relates to rat. The data set is described as follows: Measurement test of electroencephalogram in rat (sleep-awake cycle). In kind it is in vivo. The settings on record: oral. From the text:
After the completion of a quarantine period, the animals showing no abnormal health condition were subjected to an electroencephalogram electrode chronic implantation surgery with reference to brain atlas of Pellegrino (Plenum Press, New York (1979)), or the like. Under anesthesia with pentobarbital sodium, the rat was calibrated in a brain stereotaxic apparatus. In the frontal cortex, a monopolar silver ball electrode having a diameter of the tip of about 1 mm was placed on a hard film of the brain. Into the hippocampus, a laminated bipolar electrodes made of stainless steel was stuck. The reference electrode was screwed around the olfactory brain. Further, as for the electromyogram measurement, the lead wire was implanted in the both electrodes about 1 cm between the electrodes in the neck portion. The other end was exposed to the head portion subcutaneously. The electrodes and the lead wires were subjected to soldering with connector sockets and fixed to the skull with a dental resin or the like.
The rats were accommodated in a measurement cage under rat feeding and water supply on the morning of the day of administration, and accustomed to the measurement environment. After measuring the weight using an electronic scale balance, a lead wire and a connector socket were connected 30 minutes or more before the start of the electroencephalogram measurement, and the rat was accustomed in the measurement state under no anesthesia and no custody. The test compounds were intraperitoneally or orally administered to the rats and the electroencephalogram was measured continuously until 6 hours after the administration.
Ramelteon: solvent, 0.1 mg/kg, 1 mg/kg, and 10 mg/kg; intraperitoneal administration
Example 1: solvent, 3 mg/kg, 30 mg/kg, and 300 mg/kg; oral administration
Example 6: solvent, 10 mg/kg, 30 mg/kg, and 300 mg/kg; oral administration
The electrical signals of electroencephalogram and of electromyogram were applied to an electroencephalogram system and an electroencephalogram frequency analysis program of a personal computer was used to acquire the wave form of the electroencephalogram from the electroencephalograph system. In addition, the image signals of the electroencephalogram waveform were applied to an EEG video system and recorded on DVD-R using a DVD recorder. The behavior observation was carried out through a video camera at the same time as the electroencephalogram measurement and the images were also recorded on DVD-R using DVD recorder.
The presence or absence of abnormality in the electroencephalogram waveform in up to 6 hours from immediately after the administration, to each animal, respectively, was observed.
The analysis of a sleep-awake cycle was carried out using a sleep stage display-supporting program (MTS50061B, Japan Santec Corporation) based on the electroencephalogram waveforms acquired with an electroencephalogram frequency analysis program. Using the index of electroencephalogram, electromyogram, and behavior, the sleep steps were classified into an awake phase, a rest phase, a slow wave light sleep (S.W.L.S.) phase, a slow wave deep sleep (S.W.D.S.) phase, and a fast wave sleep (F.W.S., REM sleep) phase. Further, the rest phase, the slow wave light sleep phase, and the slow wave deep sleep phase were summed to determine a slow wave sleep (S.W.S., Non-REM sleep) phase. […] As the assessment criteria in the respective sleep steps, the criteria described in Japanese Pharmacological Journal 84, 25-89 (1984) were used.

Data set [2] in a line: Brain-to-plasma concentration ratio in rat after intravenous administration. In kind it is in vivo. The settings on record: brain and plasma, 15 minutes after intravenous administration. The protocol: At 15 minutes after intravenously administration of the test compound to the rats, the plasma and brain were collected. A 50% acetonitrile solution and an acetonitrile including internal standard material were added to the collected plasma. The collected brain was added to a 2-fold volume of PBS and homogenized. A 50% acetonitrile solution and an acetonitrile including internal standard material were added to the brain homogenate. The sample was centrifuged at 4° C. and 2150×g for 10 minutes, the supernatant was measured by LC-MS/MS, and the total concentration of the test compound in the brain (Cbrain) and the total concentration of the test compound in the plasma (Cplasma,t) were obtained. The brain-to-plasma concentrations ratio (Kp,brain) was calculated by the following equation.
The Kp,uu,CSF values and the Kp,brain values of ramelteon and some Example compounds of the present invention are shown in Table 4. Ex represents Example No. of the test compound. Unless otherwise specified, the Kp,uu,CSF was calculated using the fp values determined by an ultracentrifugation method. Further, N.T. represents Not Tested.

Data set [3] concerns SD female rats. The data set is described as follows: Effect of test compound on urethral pressure in anesthetized rats. In kind it is in vivo, rat. The settings on record: dose of 0.01 mg/kg. From the text: SD female rats were anesthetized with urethane and subjected to laparotomy. Then, the bladder apex was incised and a catheter was inserted from the bladder apex. Further, the catheter tip was ligated and fixed to be located in the proximal urethra portion. The catheter was connected to a pressure transducer and an infusion pump. Further, a catheter for administrating the compound was fitted into the femoral vein. Physiological saline was continuously infused into the urethra and the perfusion pressure in the urethra was measured. After the urethral pressure was stabilized, the test compound that had been dissolved in physiological saline, or physiological saline including 5% dimethylacetamide and 0.5% Cremophor was administered intravenously at 0.01 mg/kg or 0.1 mg/kg, and a change in urethral pressures was measured.
Further, the results of administering an active metabolite of midodrine (ST-1059: purchased from CHEMIZON) (J. Urology, 118, 980-982 (1977)) which is an α1 adrenoceptor agonist and is confirmed to have a clinical effect on stress urinary incontinence at doses, 0.01 mg/kg and, 0.1 mg/kg in rats, presumed to correspond to the clinical doses are referenced and shown in the Tables below.
The increment value in the urethral pressures of ramelteon and the Example compounds of the present invention at the time of administration are shown in Table 3. Ex represents Example No. of the test compound and N.T represents Not Tested.

A word on the Kp: it is the ratio of the level in a tissue or fluid to that in plasma or blood. As to `CC(=O)NCCc1c[nH]c2cc(F)c(OCCOc3ccn(C)n3)cc12` [Example 6, N-[2-(6-fluoro-5-{2-[(1-methyl-1H-pyrazol-3-yl)oxy]ethoxy}-1H-indol-3-yl)ethyl]acetamide], in data set [1] (10 mg/kg and 30 mg/kg), the “occupancy in the respective sleep steps of electroencephalogram” value is “no change in the occupancy in the respective sleep steps of electroencephalogram could be seen” and the sleep action result was “there was no sleep action”. The electroencephalogram result in data set [1] (300 mg/kg) is “a variation in the electroencephalogram was observed”. Besides, the Kp at 0.25 h in data set [2] was found to be 0.09. Moreover, the “urethral pressure increasing action” value in data set [3] was “good urethral pressure increasing action”.
